In experiment [1] the target is T1, TRPA1 (mTRPA1) (Mus musculus, UniProt Q8BLA8). Nature of the experiment: whole-cell patch clamp, agonist concentration-response in transfected HEK293 cells; no current in untransfected cells. Format: cell-based.
In experiment [2] the target is T1, TRPA1 (mTRPA1). Nature of the experiment: whole-cell patch clamp, inhibition of AITC-induced current in transfected HEK293 cells. Format: cell-based. In general terms: Patch clamp records ionic current or voltage across a cell membrane.

As a reminder, the EC50 is the midpoint of the concentration-response curve. A lower EC50 goes with higher potency in that assay. The IC50 is the concentration that inhibits the measured activity by half. Low readings indicate greater potency in that assay, high ones weaker potency in that assay.

T1 sequence (Q8BLA8 whole entry): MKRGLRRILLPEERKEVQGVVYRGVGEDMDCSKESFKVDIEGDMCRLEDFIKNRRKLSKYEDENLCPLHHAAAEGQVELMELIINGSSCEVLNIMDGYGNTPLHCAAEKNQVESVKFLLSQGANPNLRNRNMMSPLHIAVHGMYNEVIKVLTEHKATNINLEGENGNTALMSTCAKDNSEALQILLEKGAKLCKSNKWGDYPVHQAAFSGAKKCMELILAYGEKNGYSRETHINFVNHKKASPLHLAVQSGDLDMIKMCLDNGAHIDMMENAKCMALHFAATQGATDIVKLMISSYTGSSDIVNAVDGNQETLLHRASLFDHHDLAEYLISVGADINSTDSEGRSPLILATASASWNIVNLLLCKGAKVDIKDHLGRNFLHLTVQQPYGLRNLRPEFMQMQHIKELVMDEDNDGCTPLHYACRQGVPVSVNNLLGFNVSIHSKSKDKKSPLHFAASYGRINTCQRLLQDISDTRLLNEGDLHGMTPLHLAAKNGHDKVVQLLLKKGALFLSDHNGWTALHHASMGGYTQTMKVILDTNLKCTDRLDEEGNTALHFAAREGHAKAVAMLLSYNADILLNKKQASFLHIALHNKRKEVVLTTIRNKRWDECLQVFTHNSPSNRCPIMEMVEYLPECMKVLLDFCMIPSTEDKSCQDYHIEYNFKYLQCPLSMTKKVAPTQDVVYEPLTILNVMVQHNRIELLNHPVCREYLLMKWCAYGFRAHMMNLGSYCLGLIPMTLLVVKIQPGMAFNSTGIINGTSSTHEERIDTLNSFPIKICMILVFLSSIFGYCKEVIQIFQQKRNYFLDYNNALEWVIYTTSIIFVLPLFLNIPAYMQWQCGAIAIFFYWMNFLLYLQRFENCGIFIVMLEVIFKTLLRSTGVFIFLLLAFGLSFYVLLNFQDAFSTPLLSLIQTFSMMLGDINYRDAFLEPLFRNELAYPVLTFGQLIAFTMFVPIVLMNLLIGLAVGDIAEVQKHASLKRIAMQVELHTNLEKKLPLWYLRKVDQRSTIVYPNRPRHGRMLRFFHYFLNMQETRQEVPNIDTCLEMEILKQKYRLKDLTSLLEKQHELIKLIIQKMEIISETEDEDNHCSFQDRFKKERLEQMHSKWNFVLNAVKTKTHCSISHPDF

For the compound `C=CCN=C=S` [AITC, allyl isothiocyanate], on TRPA1 (mTRPA1) [1], the EC50 came out at 61.2 µM. This lies in the double-digit micromolar range. Compound `Oc1ccc(/C=C/c2cc(O)cc(O)c2)cc1` [RES, 3,5,4’ - trihydroxy-trans-stilbene] returned an IC50 on TRPA1 (mTRPA1) [2] of about 0.75 µM.

The values are drawn from publication PMC3585750, “Modulation of TRP channels by resveratrol and other stilbenoids” (Molecular Pain, 2013).
